As usually defined, the Papp A→B is how fast a substance crosses the layer from the apical side. As a reminder, the Papp B→A is how fast a substance crosses the layer from the basolateral side. By efflux ratio is commonly meant the permeability from basolateral to apical divided by that in the opposite direction, in the common usage.

The values below come from article PMC7732531 (Frontiers in Pharmacology, 2020).

Data set [1] can be described thus: Transcellular transport experiment with Caco-2 cells. To be noted: human, Caco-2. On the procedure: (§1) Caco-2 cell lines were cultured (ATCC, Manassas, VA, United States) as described previously ([Liu et al., 2014]). Briefly, the cells were cultured at 37°C in 5% CO2 at 90% humidity in DMEM high glucose medium containing 20% fetal bovine serum, 1% nonessential amino acids, 100 U/ml penicillin and 1% streptomycin. For the efflux studies, the cells were seeded onto polyethylene terephthalate Millicell® cell culture inserts (0.4 μm pore size, 6.5 mm diameter, Millipore Corporation, Billerica, MA, United States) at a density of 1.7 × 10^5 cells/ml. The culture medium was refreshed on the day after seeding, after which it was refreshed every other day and on the day before the transport experiment. The cells were cultured for 20–22 days after seeding and then evaluated by measuring the transepithelial electrical resistance (TEER) (Millicell ERS®, Millipore Corporation) before experiments. […] Transepithelial permeability studies for YL-IPA08 (10 μM) were conducted from apical to basolateral side (A-B) and basolateral to apical side (B-A) for 120 min 0.2% BSA was included in the receiver solution to avoid nonspecific binding. At 60, 90, and 120 min, half volume of solution from receiver side was withdrawn, and same volume of HBSS was immediately added. Obtained samples were precipitated by adding 4× volumes of acetonitrile containing IS and centrifuged. The supernatants were stored in −20°C until further analysis by LC-MS/MS.
(§2) The in vitro t1/2 in liver microsomal incubation was calculated from the semi-log plot of percentage remaining vs. incubation time and intrinsic clearance (Clint, ml/min/mg protein) was calculated as Eq. 1: CLint=0.693/in vitro t1/2×volume of incubation (μl)/amount of microsomal protein in incubation (mg) (1) ([Suzuki et al., 2003]).Apparent permeability was obtained according to the equation Papp = (dQ/dt)/(A × C0), where dQ/dt is the mass transport rate (determined from the slope of the amount transported vs. time plot), A is the surface area of the monolayer, and C0 is the initial concentration of YL-IPA08 in the donor chamber ([Suzuki et al., 2003]). The efflux ratio was calculated for each study using the following equation: […] = Papp(B–A)/Papp(A–B), where Papp(B–A) and Papp(A–B) represent apparent drug permeability in the B to A and A to B direction, respectively. An efflux ratio greater than 2 indicates net efflux.
For orientation: Passage across Caco-2 layers is used to estimate intestinal permeability.

Data set [2] relates to Caco-2 cells. The data set is described as above. Conditions: for Concentration, A-B-A-90min / Concentration, A-B-B-90min: Caco-2, A→B; for Concentration, A-B-A-90min: apical (donor) side; for Concentration, A-B-B-90min: basolateral (receiver) side; for Concentration, B-A-A-90min / Concentration, B-A-B-90min: Caco-2, B→A; for Concentration, B-A-A-90min: apical (receiver) side; for Concentration, B-A-B-90min: basolateral (donor) side; for Concentration, DOA: Caco-2, apical donor at time 0; for Concentration, DOB: Caco-2, basolateral donor at time 0. The protocol:
as §1, §2

Data set [3] is described as follows: Protein binding by rapid equilibrium dialysis, rat plasma. Conditions: 1 µM. The protocol: The fraction of unbound YL-IPA08 in plasma and liver microsomes of rat and human, and brain homogenates of rat were determined utilizing Rapid Equilibrium Dialysis method ([Waters et al., 2008]). Rat brain homogenate was harvested in 4-fold volume (w/v) of PBS (pH 7.4). YL-IPA08 were spiked into fresh plasma, rat brain homogenate, liver microsomes (0.2 mg/ml protein) at concentration of 1 µM, and then dialyzed against […] on a shaker at 37°C for 4 h. To avoid the high non-specific binding of YL-IPA08, 0.01% Tween 80 was added in the incubation mixture. At the end of the incubation, protein was precipitated with acetonitrile (containing IS) and analyzed by LC-MS/MS. Phenacetin, quinidine, and warfarin were selected as positive control for the protein binding test.
The unbound fraction of YL-IPA08 in plasma or liver microsomes (ƒu,x) was calculated as shown in Eq. 2, and unbound fraction in the tissue homogenate (ƒu,b) was calculated according to Eq. 3. fu,x = Concbuffer chamber/Concplasma/liver microsomes chamber (2) fu,b = Concbuffer chamber/Concbrain homogenate chamber (3) The measured unbound fractions would be higher when a tissue is homogenized and diluted in buffer, the unbound fractions in an undiluted tissues (ƒu,brain) were calculated using Eq. 4 ([Kalvass and Maurer, 2002]). Undiluted fu,brain=1/D/((1/fu,brain homogenate)−1)+1/D (4) Where D represents the fold of dilution factor in brain homogenates. The free fraction of plasma and undiluted tissue is used in tissue-to-plasma exposure ratio calculation.

In the case of `C[C@H]1O[C@@H](O[C@H]2[C@@H](O)C[C@H](O[C@H]3[C@@H](O)C[C@H](O[C@H]4CC[C@@]5(C)[C@H](CC[C@@H]6[C@@H]5C[C@@H](O)[C@]5(C)[C@@H](C7=CC(=O)OC7)CC[C@]65O)C4)O[C@@H]3C)O[C@@H]2C)C[C@H](O)[C@@H]1O` [Digoxin], in data set [1], the Papp A→B at 120 min, 10 μM came to 0.45 ± 0.17 ×10⁻⁶ cm/s; the Papp B→A at 120 min, 10 μM was found to be 2.63 ± 0.7 ×10⁻⁶ cm/s; the efflux ratio at 120 min, 10 μM stood at 6.25. In addition, in data set [2], the “Concentration, A-B-A-90min” value came out at 8.117 ± 0.473 µM; the “Concentration, A-B-B-90min” value is 0.009 ± 0.002 µM; the “Concentration, B-A-A-90min” value came to 0.203 ± 0.027 µM; the “Concentration, B-A-B-90min” value amounted to 8.867 ± 0.388 µM. In addition, in data set [2], the “Concentration, DOA” value amounted to 11.683 ± 3.499 µM and the “Concentration, DOB” value was 12.667 ± 2.619 µM.

`C=C[C@H]1C[N@@]2CC[C@H]1C[C@@H]2[C@@H](O)c1ccnc2ccc(OC)cc12` [quinidine, reference compound]: the “Protein biding (%)” value in data set [3] (Rat plasma, dialysis 4 h) is 78.08 ± 4.49%.

With `CC(=O)CC(c1ccccc1)c1c(O)c2ccccc2oc1=O` (stereo not drawn) [warfarin, reference compound], the “Protein biding (%)” value in data set [3] (rat, 4 h) stood at 99.67 ± 0.08%.

Take `CC(C)NCC(O)COc1cccc2ccccc12` (stereo not drawn) [Propranolol]: in data set [1], the Papp A→B at 120 min, 10 μM is 4.35 ± 2.06 ×10⁻⁶ cm/s; the Papp B→A at 120 min, 10 μM was found to be 2.78 ± 0.09 ×10⁻⁶ cm/s; the efflux ratio at 120 min, 10 μM was 0.63. Also, in data set [2], the “Concentration, A-B-A-90min” value is 4.608 ± 0.43 µM; the “Concentration, A-B-B-90min” value was 0.079 ± 0.026 µM; the “Concentration, B-A-A-90min” value was 0.172 ± 0.019 µM; the “Concentration, B-A-B-90min” value was 7.267 ± 0.597 µM. Further, in data set [2], the “Concentration, DOA” value came out at 10.633 ± 2.369 µM and the “Concentration, DOB” value amounted to 10.367 ± 1.118 µM.

With `CCOc1ccc(NC(C)=O)cc1` [phenacetin, reference compound], the “Protein biding (%)” value in data set [3] (Rat plasma, dialysis 4 h) worked out at 58.48 ± 2.26%.
